Assay results published in ChEMBL document CHEMBL1201862, “PubChem BioAssay data set” (2004).
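Five concentrations, 48 hours, 96-well plates. GI50 is the concentration that inhibits growth by half.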 The source made the active and inactive calls. Rule as the data show it: active = GI50 up to about 1.1 µM and inactive = higher.

How the values were obtained:
Experiment in all cases: NCI-60 cell line screen, 48 h
[1] = test system: TK-10
[2] = test system: HT-29
[3] = test system: SN12C
[4] = test system: NCI-H226
[5] = test system: Malme-3M
[6] = test system: NCI-H522
[7] = test system: SK-MEL-2
[8] = test system: SK-OV-3
[9] = test system: SNB-75
[10] = test system: CCRF-CEM
[11] = test system: SK-MEL-5
[12] = test system: NCI-H23
[13] = test system: NCI-H460
[14] = test system: HOP-62
[15] = test system: A498
[16] = test system: HL-60
[17] = test system: SF-295
[18] = test system: OVCAR-5

Measured: GI50

NC(CCC(=O)NC(CSC(=O)N(O)c1ccccc1)C(=O)NCC(=O)O)C(=O)O (stereo not drawn)
inactive: [1] > 1000 µM | [2] > 1000 µM | [3] > 1000 µM | [4] > 1000 µM | [5] > 1000 µM | [6] > 1000 µM | [7] > 1000 µM | [8] > 1000 µM | [9] > 1000 µM | [10] > 1000 µM | [11] > 1000 µM | [12] > 1000 µM | [13] > 1000 µM | [14] > 1000 µM | [15] > 1000 µM | [16] > 1000 µM | [17] > 1000 µM | [18] > 1000 µM

CCOC(=O)C1=C(O)C(=O)c2cc(OC)ccc2C1=O
inactive: [1] > 100 µM | [2] > 100 µM | [3] > 100 µM | [4] 38.5 µM | [5] > 100 µM | [6] 55.7 µM | [7] > 100 µM | [8] > 100 µM | [9] 20.9 µM | [10] > 100 µM | [11] 49.1 µM | [12] 31.8 µM | [13] > 100 µM | [14] > 100 µM | [15] > 100 µM | [16] > 100 µM | [17] 84.9 µM | [18] > 100 µM

Nc1ncnc2c1ncn2C1OC(CSC(F)F)C(O)C1O (stereo not drawn)
inactive: [1] > 100 µM | [2] > 100 µM | [3] > 100 µM | [4] > 100 µM | [5] > 100 µM | [6] 86.3 µM | [7] > 100 µM | [8] > 100 µM | [9] > 100 µM | [10] > 100 µM | [11] > 100 µM | [12] > 100 µM | [13] > 100 µM | [14] > 100 µM | [15] > 100 µM | [16] > 100 µM | [17] > 100 µM | [18] > 100 µM

COc1cc2c3c(c1OC)C(=O)C=C3N(S(=O)(=O)c1ccc(C)cc1)CC2
inactive: [1] > 100 µM | [2] > 100 µM | [3] > 100 µM | [4] > 100 µM | [5] > 100 µM | [6] 10.4 µM | [7] > 100 µM | [8] > 100 µM | [9] 46.9 µM | [10] > 100 µM | [11] > 100 µM | [12] > 100 µM | [13] > 100 µM | [14] 64.3 µM | [15] > 100 µM | [16] > 100 µM | [17] 77.8 µM | [18] > 100 µM

CCOc1ccc2nc(NC(=O)C(=O)C(C#N)CC(C)(C)C=O)sc2c1 (stereo not drawn)
inactive: [1] > 100 µM | [2] > 100 µM | [3] > 100 µM | [4] > 100 µM | [5] > 100 µM | [6] 49.9 µM | [7] > 100 µM | [8] > 100 µM | [9] > 100 µM | [10] 26.9 µM | [11] > 100 µM | [12] > 100 µM | [13] > 100 µM | [14] > 100 µM | [15] > 100 µM | [16] > 100 µM | [17] > 100 µM | [18] > 100 µM

Nc1ccc(C2=Nc3ccccc3SC(c3ccccc3O)C2)cc1 (stereo not drawn)
inactive: [1] > 100 µM | [2] 42.8 µM | [3] 45.5 µM | [4] 33.3 µM | [5] > 100 µM | [6] 21.3 µM | [7] > 100 µM | [8] > 100 µM | [9] 24.7 µM | [10] 12.4 µM | [11] 26.1 µM | [12] 30.5 µM | [13] 30.6 µM | [14] 64 µM | [15] 7.13 µM | [16] 23.9 µM | [17] 38 µM | [18] > 100 µM
